We go through 17 compounds from patent publication US11224565B2, “N-acyldipeptide derivatives and their uses” (NeoStrata Company, Inc., priority 2011, dated 2022).

Holding throughout (assay type): in vivo, human
What all share (conditions): efficacy grade

In test [1] the test system is Nerve disorders. Nature of the test: Summary of test results in volunteer subjects: nerve disorders. The source says:
(§1) In one embodiment, a composition for topical application to test its therapeutic effect was formulated by dissolving a bioactive dipeptide derivative of the present invention in a solution prepared from 40 parts water, 40 parts ethanol and 20 parts propylene glycol by volume (WEP442). In another embodiment, a composition was formulated by dissolving a bioactive dipeptide derivative of the present invention in a non-aqueous solution prepared from 80 parts ethanol and 20 parts propylene glycol by volume (EP82). In yet another embodiment, a composition was formulated first by dissolving a bioactive dipeptide derivative of the present invention in a solution prepared from 80 parts water and 20 parts propylene glycol by volume (WP82), and the solution thus prepared was mixed with an oil-in-water emulsion or cream. In another embodiment, the volunteer subject topically applied the test compositions containing N-acyldipeptide derivatives of the present invention on involved skin or lesions once or twice daily for several weeks or until the involved lesions completely cleared and clinically changed to normal skin. As a control study, the subject also topically applied a vehicle control composition on the involved skin or lesions twice daily for the same period. In yet another embodiment, the volunteer subject topically applied once or twice daily the test compositions containing N-acyldipeptide derivatives of the present invention on the skin site above arthritic joints or painful muscles to provide therapeutic effects for the systemic disorders via topical administration. Some test results are summarized as follows. ND: Nerve disorders

In test [2] the test system is Disturbed keratinization. The test is described as follows: Summary of test results in volunteer subjects: disturbed keratinization.
Description: as §1, with “DK: Disturbed keratinization” for “ND: Nerve disorders”

Test [3] concerns Deranged immune disorders and inflammation. The test is described as follows: Summary of test results in volunteer subjects: deranged immune disorders and inflammation. An excerpt: In one embodiment, a composition for topical application to test its therapeutic effect was formulated by dissolving a bioactive dipeptide derivative of the present invention in a solution prepared from 40 parts water, 40 parts ethanol and 20 parts propylene glycol by volume (WEP442). In another embodiment, a composition was formulated by dissolving a bioactive dipeptide derivative of the present invention in a non-aqueous solution prepared from 80 parts ethanol and 20 parts propylene glycol by volume (EP82). In yet another embodiment, a composition was formulated first by dissolving a bioactive dipeptide derivative of the present invention in a solution prepared from 80 parts water and 20 parts propylene glycol by volume (WP82), and the solution thus prepared was mixed with an oil-in-water emulsion or cream. In another embodiment, the volunteer subject topically applied the test compositions containing N-acyldipeptide derivatives of the present invention on involved skin or lesions once or twice daily for several weeks or until the involved lesions completely cleared and clinically changed to normal skin. As a control study, the subject also topically applied a vehicle control composition on the involved skin or lesions twice daily for the same period. In yet another embodiment, the volunteer subject topically applied once or twice daily the test compositions containing N-acyldipeptide derivatives of the present invention on the skin site above arthritic joints or painful muscles to provide therapeutic effects for the systemic disorders via topical administration. Some test results are summarized as follows. DI: Deranged immune disorders and inflammation

The test system of test [4] is Aging related changes of skin, nail and hair. Nature of the test: Summary of test results in volunteer subjects: aging related changes.
Description: as §1, with “AG: Aging related changes of skin, nail and hair” for “ND: Nerve disorders”

Peptide text beside a SMILES is read from it.

Regarding `CC(=O)N[C@@H](Cc1c[nH]c2ccccc12)C(=O)N[C@@H](Cc1c[nH]c2ccccc12)C(N)=O` [N-Ac-L-Trp-L-Trp-NH2] (Ac-Trp-Trp-NH2), in test [1], the ND was 2+ (2+: 50% Efficacy). Further, the DK in test [2] was 2+ (2+: 50% Efficacy). Also, in test [3], the DI is reported as 2+ (2+: 50% Efficacy). For the same compound, in test [4], the AG was 2+ (2+: 50% Efficacy).

In the case of `CC(=O)Nc1ccccc1C(=O)NCC(N)=O` [N-Ac-Abz-Gly-NH2], the ND in test [1] is on record as 3+ (3+: 75% Efficacy). For the same compound, the DK in test [2] is 2+ (2+: 50% Efficacy). Moreover, the DI in test [3] was 3+ (3+: 75% Efficacy). The AG in test [4] is recorded as 2+ (2+: 50% Efficacy).

For the compound `CCOC(=O)[C@H](Cc1ccc(O)cc1)NC(=O)[C@H](Cc1ccc(O)cc1)NC(C)=O` [N-Ac-L-Tyr-L-Tyr-OEt] (HELM PEPTIDE1{[ac].Y.Y.[CCO[*:1]]}$$$$V2.0), the ND in test [1] is 2+ (2+: 50% Efficacy). Moreover, the DK in test [2] is on record as 2+ (2+: 50% Efficacy). The DI in test [3] is 2+ (2+: 50% Efficacy). The AG in test [4] was 2+ (2+: 50% Efficacy).

As to `CC(=O)N[C@@H](Cc1c[nH]cn1)C(=O)NCC(N)=O` [N-Ac-L-His-Gly-NH2] (Ac-His-Gly-NH2), the ND in test [1] was 2+ (2+: 50% Efficacy). Further, in test [2], the DK was 2+ (2+: 50% Efficacy). Moreover, the DI in test [3] was 2+ (2+: 50% Efficacy). Besides, the AG in test [4] is listed as 2+ (2+: 50% Efficacy).

For `CC[C@H](C)[C@H](NC(C)=O)C(=O)NCC(=O)O` [N-Ac-L-Ile-Gly-OH] (Ac-Ile-Gly-OH), the ND in test [1] is given as 4+ (4+: 95-100% Efficacy). In test [2], the DK was 2+ (2+: 50% Efficacy). For the same compound, the DI in test [3] was 3+ (3+: 75% Efficacy). In addition, the AG in test [4] was 2+ (2+: 50% Efficacy).

Turning to `CC[C@H](C)[C@H](NC(C)=O)C(=O)N[C@@H](Cc1ccc(O)cc1)C(N)=O` [N-Ac-L-Ile-L-Tyr-NH2] (Ac-Ile-Tyr-NH2), the ND in test [1] was 2+ (2+: 50% Efficacy). Further, in test [2], the DK was 2+ (2+: 50% Efficacy). In test [3], the DI is given as 2+ (2+: 50% Efficacy). Also, in test [4], the AG is reported as 2+ (2+: 50% Efficacy).

Turning to `CC(=O)N[C@@H](CC(C)C)C(=O)N[C@@H](Cc1ccc(O)cc1)C(N)=O` [N-Ac-L-Leu-L-Tyr-NH2] (Ac-Leu-Tyr-NH2), the ND in test [1] is 2+ (2+: 50% Efficacy). Besides, in test [2], the DK was 2+ (2+: 50% Efficacy). The DI in test [3] is reported as 2+ (2+: 50% Efficacy). In addition, in test [4], the AG is recorded as 2+ (2+: 50% Efficacy).

As for `CC(=O)NCCCC(=O)NCC(N)=O` [N-Ac-Gaba-Gly-NH2], the ND in test [1] was 2+ (2+: 50% Efficacy). Further, the DK in test [2] is 2+ (2+: 50% Efficacy). For the same compound, the DI in test [3] is recorded as 2+ (2+: 50% Efficacy). Moreover, the AG in test [4] is on record as 2+ (2+: 50% Efficacy).

As for `CC(=O)N[C@H](C(=O)NCC(=O)O)C(C)C` [N-Ac-L-Val-Gly-OH] (Ac-Val-Gly-OH), the ND in test [1] is on record as 4+ (4+: 95-100% Efficacy). In test [2], the DK is 2+ (2+: 50% Efficacy). Besides, the DI in test [3] was 3+ (3+: 75% Efficacy). Besides, the AG in test [4] is given as 2+ (2+: 50% Efficacy).

Regarding `CC(=O)N[C@@H](CS)C(=O)N[C@@H](CS)C(=O)O` [N-Ac-L-Cys-L-Cys-OH] (Ac-Cys-Cys-OH), the ND in test [1] is recorded as 2+ (2+: 50% Efficacy). In addition, the DK in test [2] was 2+ (2+: 50% Efficacy). In test [3], the DI is listed as 2+ (2+: 50% Efficacy). In test [4], the AG was 3+ (3+: 75% Efficacy).

Regarding N,N′-diAc-βAla-L-His-NH2, in test [1], the ND is on record as 2+ (2+: 50% Efficacy). Besides, the DK in test [2] is listed as 2+ (2+: 50% Efficacy). Also, the DI in test [3] is recorded as 2+ (2+: 50% Efficacy). Also, the AG in test [4] is given as 2+ (2+: 50% Efficacy).

Regarding `CC(=O)N[C@H](C(=O)N[C@@H](Cc1ccc(O)cc1)C(N)=O)C(C)C` [N-Ac-L-Val-L-Tyr-NH2] (Ac-Val-Tyr-NH2), the ND in test [1] is recorded as 2+ (2+: 50% Efficacy). Besides, in test [2], the DK is recorded as 2+ (2+: 50% Efficacy). Besides, the DI in test [3] is reported as 2+ (2+: 50% Efficacy). Further, the AG in test [4] is recorded as 2+ (2+: 50% Efficacy).

For the compound `CC(=O)N[C@@H](CC(N)=O)C(=O)NCC(N)=O` [N-Ac-L-Asn-Gly-NH2] (Ac-Asn-Gly-NH2), the ND in test [1] is 2+ (2+: 50% Efficacy). The DK in test [2] is 2+ (2+: 50% Efficacy). In addition, the DI in test [3] is 2+ (2+: 50% Efficacy). In addition, the AG in test [4] is reported as 2+ (2+: 50% Efficacy).

Regarding `CC[C@H](C)[C@H](NC(C)=O)C(=O)NCC(N)=O` [N-Ac-L-Ile-Gly-NH2] (Ac-Ile-Gly-NH2), the ND in test [1] was 4+ (4+: 95-100% Efficacy). In test [2], the DK is recorded as 3+ (3+: 75% Efficacy). Also, the DI in test [3] is reported as 4+ (4+: 95-100% Efficacy). In addition, the AG in test [4] is 3+ (3+: 75% Efficacy).

Take `NC(=O)CNC(=O)[C@H](Cc1ccc(O)cc1)NC(=O)OCc1ccccc1` [N-Z-L-Tyr-Gly-NH2]: in test [1], the ND is on record as 2+ (2+: 50% Efficacy). Further, the DK in test [2] is recorded as 2+ (2+: 50% Efficacy). Moreover, the DI in test [3] was 2+ (2+: 50% Efficacy). Besides, in test [4], the AG was 2+ (2+: 50% Efficacy).

Consider `CCC(=O)N[C@@H](CC(C)C)C(=O)NCC(=O)O` [N-Pr-L-Leu-Gly-OH] (HELM PEPTIDE1{[CCC(=O)[*:2]].L.G}$$$$V2.0), for which the ND in test [1] is 3+ (3+: 75% Efficacy). In test [2], the DK is on record as 2+ (2+: 50% Efficacy). For the same compound, in test [3], the DI is 3+ (3+: 75% Efficacy). Further, the AG in test [4] is 2+ (2+: 50% Efficacy).

On to `CC(=O)N[C@@H](CC(C)C)C(=O)NCC(=O)O` [N-Ac-L-Leu-Gly-OH] (Ac-Leu-Gly-OH), for which the ND in test [1] is recorded as 3+ (3+: 75% Efficacy). Besides, the DK in test [2] was 2+ (2+: 50% Efficacy). The DI in test [3] is recorded as 3+ (3+: 75% Efficacy). Besides, the AG in test [4] is 2+ (2+: 50% Efficacy).
